Experimental findings from US20200239530A1, “COMPOUNDS AND METHODS OF MODULATING PROTEIN DEGRADATION” (Vividion Therapeutics, Inc., priority 2017, published 2020) are described below.

Molecules are shown by their SMILES. Read-outs that look alike come from different tables or passages of the source.

What all share (experiment): Cysteine liganding, probe competition
Common to all, as to format: binding

One test concerns the target T1, UniProt Q9BVG3 (Homo sapiens, UniProt Q9BVG3).
T1 construct: 200 μL of lysate containing 5 mg/ml proteome was treated with 2 μL of 100× compound stock; endogenous in cells
The source says: (§1) The following 96-well sample prep protocol was used for sample preparation.

The target of the next test is T2, UniProt Q6VVB1 (Homo sapiens, UniProt Q6VVB1).
T2 construct: Cells were resuspended in cold PBS on ice and sonicated with a probe sonicator to achieve lysis; endogenous in cells
Text: as §1

The next test concerns the target T3, UniProt Q9BR09 (Homo sapiens, UniProt Q9BR09).
T3 construct: Cells were resuspended in cold PBS on ice and sonicated with a probe sonicator to achieve lysis; endogenous in cells
As to conditions: read-out: percent inhibition.
Text: as §1

The next test concerns the target T4, UniProt Q96JY6 (Homo sapiens, UniProt Q96JY6).
T4 construct: 200 μL of lysate containing 5 mg/ml proteome was treated with 2 μL of 100× compound stock; endogenous in cells
T4 sequence (Q96JY6 1-352): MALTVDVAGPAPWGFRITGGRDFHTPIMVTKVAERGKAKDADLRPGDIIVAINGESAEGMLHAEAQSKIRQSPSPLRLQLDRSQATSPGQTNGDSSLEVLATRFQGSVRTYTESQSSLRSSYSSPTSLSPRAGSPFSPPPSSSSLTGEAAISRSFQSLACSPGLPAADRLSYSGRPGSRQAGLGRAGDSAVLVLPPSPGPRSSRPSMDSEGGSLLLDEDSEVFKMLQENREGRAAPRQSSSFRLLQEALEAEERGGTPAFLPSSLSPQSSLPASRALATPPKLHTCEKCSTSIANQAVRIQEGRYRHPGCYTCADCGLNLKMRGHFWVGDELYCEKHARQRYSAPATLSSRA
Text: as §1

In a further test the target is T5, UniProt Q9BSL1 (Homo sapiens, UniProt Q9BSL1).
T5 construct: 200 μL of lysate containing 5 mg/ml proteome was treated with 2 μL of 100× compound stock; endogenous in cells
T5 sequence (Q9BSL1 1-405): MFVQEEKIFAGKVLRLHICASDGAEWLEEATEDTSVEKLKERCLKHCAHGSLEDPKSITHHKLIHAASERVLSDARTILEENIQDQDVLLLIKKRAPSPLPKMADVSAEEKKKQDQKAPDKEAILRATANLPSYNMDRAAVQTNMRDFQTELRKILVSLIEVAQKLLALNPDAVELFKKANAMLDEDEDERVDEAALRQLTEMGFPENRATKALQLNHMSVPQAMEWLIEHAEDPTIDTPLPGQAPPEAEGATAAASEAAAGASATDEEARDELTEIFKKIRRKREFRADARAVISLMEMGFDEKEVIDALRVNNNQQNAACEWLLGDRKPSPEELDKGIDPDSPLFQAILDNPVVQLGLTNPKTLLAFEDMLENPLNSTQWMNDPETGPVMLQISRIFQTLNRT
Text: as §1

Another test has as its target T6, UniProt Q13049 (Homo sapiens, UniProt Q13049).
T6 construct: 200 μL of lysate containing 5 mg/ml proteome was treated with 2 μL of 100× compound stock; endogenous in cells
Text: as §1

The target of a further test is T7, UniProt P46934 (Homo sapiens, UniProt P46934).
T7 construct: Cells were resuspended in cold PBS on ice and sonicated with a probe sonicator to achieve lysis; endogenous in cells
T7 sequence (P46934 1-1319): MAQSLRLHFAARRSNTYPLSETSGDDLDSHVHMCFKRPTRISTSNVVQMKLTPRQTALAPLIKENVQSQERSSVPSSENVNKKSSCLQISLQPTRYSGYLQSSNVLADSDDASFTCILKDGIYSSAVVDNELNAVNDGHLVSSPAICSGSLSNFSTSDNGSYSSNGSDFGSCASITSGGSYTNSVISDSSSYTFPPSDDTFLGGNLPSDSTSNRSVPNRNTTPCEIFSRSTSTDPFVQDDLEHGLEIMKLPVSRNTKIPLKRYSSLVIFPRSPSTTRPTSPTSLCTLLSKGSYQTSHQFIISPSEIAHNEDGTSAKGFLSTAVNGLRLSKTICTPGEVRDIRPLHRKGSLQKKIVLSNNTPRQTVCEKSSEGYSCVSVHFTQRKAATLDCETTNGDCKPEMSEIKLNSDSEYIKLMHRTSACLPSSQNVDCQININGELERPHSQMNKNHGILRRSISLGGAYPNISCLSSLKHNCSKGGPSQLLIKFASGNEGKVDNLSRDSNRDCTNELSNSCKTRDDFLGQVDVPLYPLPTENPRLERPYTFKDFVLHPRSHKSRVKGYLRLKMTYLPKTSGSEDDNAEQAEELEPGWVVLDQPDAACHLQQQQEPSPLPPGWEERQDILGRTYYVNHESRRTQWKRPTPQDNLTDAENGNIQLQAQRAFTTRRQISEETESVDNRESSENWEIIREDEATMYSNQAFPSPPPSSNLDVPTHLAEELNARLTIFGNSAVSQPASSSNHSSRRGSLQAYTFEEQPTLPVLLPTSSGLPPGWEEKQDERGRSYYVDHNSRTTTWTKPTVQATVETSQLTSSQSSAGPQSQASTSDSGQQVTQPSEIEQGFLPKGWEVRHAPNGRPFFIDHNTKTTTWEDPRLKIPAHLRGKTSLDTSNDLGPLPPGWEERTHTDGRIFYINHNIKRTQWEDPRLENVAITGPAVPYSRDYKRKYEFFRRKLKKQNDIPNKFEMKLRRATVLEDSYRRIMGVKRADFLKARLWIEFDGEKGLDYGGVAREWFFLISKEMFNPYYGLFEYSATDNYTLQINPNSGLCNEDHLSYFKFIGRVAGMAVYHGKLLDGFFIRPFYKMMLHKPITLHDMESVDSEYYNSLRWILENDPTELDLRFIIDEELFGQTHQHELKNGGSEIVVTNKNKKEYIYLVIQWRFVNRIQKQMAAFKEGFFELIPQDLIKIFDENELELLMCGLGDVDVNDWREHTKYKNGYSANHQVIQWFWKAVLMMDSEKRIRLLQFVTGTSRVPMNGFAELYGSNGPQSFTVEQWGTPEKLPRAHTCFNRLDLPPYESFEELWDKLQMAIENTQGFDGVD
Text: as §1

Where [1] appears, read: 500 uM, read-out: KB05_500 uM_percent_inhibition.
[2] abbreviates: read-out: KB05_100 uM_percent_inhibition.

T6 sequence (Q13049 whole entry, change not shown): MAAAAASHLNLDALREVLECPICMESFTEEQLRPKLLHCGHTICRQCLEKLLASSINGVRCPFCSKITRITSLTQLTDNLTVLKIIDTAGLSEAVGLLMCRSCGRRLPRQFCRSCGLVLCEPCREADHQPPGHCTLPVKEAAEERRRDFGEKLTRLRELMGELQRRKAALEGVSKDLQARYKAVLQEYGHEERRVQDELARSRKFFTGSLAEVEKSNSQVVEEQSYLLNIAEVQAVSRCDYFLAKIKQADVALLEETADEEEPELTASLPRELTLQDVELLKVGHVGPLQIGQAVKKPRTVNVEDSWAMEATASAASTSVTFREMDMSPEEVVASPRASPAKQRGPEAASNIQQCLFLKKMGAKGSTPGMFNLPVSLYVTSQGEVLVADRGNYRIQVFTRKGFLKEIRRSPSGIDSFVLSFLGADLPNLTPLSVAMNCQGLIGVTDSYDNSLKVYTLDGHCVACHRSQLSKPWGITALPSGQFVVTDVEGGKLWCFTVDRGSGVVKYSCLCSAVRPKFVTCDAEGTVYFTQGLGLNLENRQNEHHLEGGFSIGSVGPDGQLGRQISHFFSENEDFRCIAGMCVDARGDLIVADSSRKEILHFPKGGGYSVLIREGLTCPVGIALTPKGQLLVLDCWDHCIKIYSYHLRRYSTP
T1 sequence (Q9BVG3 whole entry, change not shown): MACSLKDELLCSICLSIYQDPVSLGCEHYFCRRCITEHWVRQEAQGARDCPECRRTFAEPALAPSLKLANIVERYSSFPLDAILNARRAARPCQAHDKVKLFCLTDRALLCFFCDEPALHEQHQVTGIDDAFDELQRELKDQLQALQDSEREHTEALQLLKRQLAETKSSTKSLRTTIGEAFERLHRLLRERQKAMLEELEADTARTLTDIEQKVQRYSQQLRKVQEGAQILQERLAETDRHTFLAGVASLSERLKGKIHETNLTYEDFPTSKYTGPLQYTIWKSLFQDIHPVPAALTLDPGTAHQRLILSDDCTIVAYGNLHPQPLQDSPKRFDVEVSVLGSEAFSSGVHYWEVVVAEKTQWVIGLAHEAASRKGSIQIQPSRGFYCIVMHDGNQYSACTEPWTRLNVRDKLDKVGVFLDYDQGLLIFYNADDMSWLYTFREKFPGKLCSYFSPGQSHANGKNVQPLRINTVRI
T3 sequence (Q9BR09 whole entry, change not shown): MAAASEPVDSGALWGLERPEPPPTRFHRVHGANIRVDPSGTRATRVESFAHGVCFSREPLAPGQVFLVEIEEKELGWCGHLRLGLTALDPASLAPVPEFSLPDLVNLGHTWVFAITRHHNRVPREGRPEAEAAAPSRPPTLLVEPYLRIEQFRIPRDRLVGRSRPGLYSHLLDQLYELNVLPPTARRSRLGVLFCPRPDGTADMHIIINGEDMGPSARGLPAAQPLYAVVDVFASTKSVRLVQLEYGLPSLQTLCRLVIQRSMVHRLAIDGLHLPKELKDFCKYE
T2 sequence (Q6VVB1 whole entry, change not shown): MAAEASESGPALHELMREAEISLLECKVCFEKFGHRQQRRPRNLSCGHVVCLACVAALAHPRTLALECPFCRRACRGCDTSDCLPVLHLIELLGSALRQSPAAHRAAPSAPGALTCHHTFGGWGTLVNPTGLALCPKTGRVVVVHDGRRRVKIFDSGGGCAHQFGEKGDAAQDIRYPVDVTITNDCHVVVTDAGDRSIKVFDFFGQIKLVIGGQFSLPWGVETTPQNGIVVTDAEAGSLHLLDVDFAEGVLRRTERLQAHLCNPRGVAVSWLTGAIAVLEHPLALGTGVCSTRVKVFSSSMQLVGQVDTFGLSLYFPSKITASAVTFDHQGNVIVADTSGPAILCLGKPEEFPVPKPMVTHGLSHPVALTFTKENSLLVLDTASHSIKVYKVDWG

Regarding `COc1ccc2c(c1)CCCN2C(=O)CCl` [KB02], the inhibition at 100 µM at UniProt Q9BVG3 (100 uM, read-out: KB02_100 uM_percent_inhibition) turned out to be 1%; on UniProt Q96JY6 (read-out: KB02_100 uM_percent_inhibition) it was 23%. In addition, the results for the inhibition at 500 µM on UniProt Q6VVB1 (read-out: KB02_500 uM_percent_inhibition) and on UniProt Q9BR09 were 9% and 32%, respectively.

For `C=CC(=O)N(c1ccccc1)c1ccc(Br)cc1` [KB05], the inhibition at 100 µM at UniProt Q9BSL1 (100 uM, read-out: KB05_100 uM_percent_inhibition) is 36%; on UniProt Q13049 (setting [2]) it was 5%; on UniProt Q96JY6 (setting [2]), 33%; at UniProt P46934 (100 uM, read-out: percent inhibition) it was 52%. Besides, at UniProt Q9BSL1 (500 uM), the “KB05_500 uM_percent_inhibition” value is listed as 57%. The inhibition at 500 µM on UniProt Q9BSL1 (setting [1]) stood at 48%; at UniProt Q6VVB1 (read-out: KB05_500 uM_percent_inhibition) it was 15%; at UniProt Q9BR09, 3%; at UniProt Q96JY6 (setting [1]) it was 36%; at UniProt P46934 (500 uM, read-out: percent inhibition) it was 53%.

On to `O=C(CCl)Nc1cc(C(F)(F)F)cc(C(F)(F)F)c1` [KBO3], for which the “KB03_100 uM_percent_inhibition” value at UniProt Q9BSL1 (100 uM) is on record as 36%; at UniProt Q13049 (100 uM) it was 14%. Besides, the “KB03_500 uM_percent_inhibition” value on UniProt Q9BVG3 (500 uM) came out at 59%. Besides, the percent inhibition at UniProt P46934 (100 uM) was 71%; on UniProt P46934 (500 uM), 76%.
